Test results from PMC7374715, “Conservation of Cdc14 phosphatase specificity in plant fungal pathogens: implications for antifungal development” (Scientific Reports, 2020).
Like-named read-outs stand apart in the source and are kept apart here. Numbered stars: 1 amine (or outer) side, 2 acyl side, 3 side chain; on linkers, the order of the positions; unused ones are H or OH. Square brackets hold non-standard residues; d marks the D form. Ends that are not written are not given here. Peptide text beside a SMILES is read from it. X1 = O=C([C@H](CC(F)(F)P(=O)(O)O)N[*:1])[*:2]; pS = N[C@@H](COP(=O)(O)O)C(=O)O

Experiments:
MoCdc14 [1] = target: T1, MoCdc14 (Pyricularia oryzae, UniProt G4MRC9); conditions: DiFMUP; 0.5 nM enzyme, pH 7.5, 30 °C; mean of 3 ± SD
CzCdc14 [2] = conditions: DiFMUP; 0.5 nM enzyme, pH 7.5, 30 °C; mean of 3 ± SD
Method: All enzyme concentrations were 0.5 nM, except for PsCdc14 and VHR, which were assayed at 2 and 5 nM, respectively. Fluorescence intensity was measured continuously on a Synergy H1 microplate reader (BioTek) with excitation and emission wavelengths set at 358 and 450 nm, respectively. Fluorescence intensity was converted to product concentration using a 6,8-difluoro-4-methylumbelliferone standard curve. Background fluorescence was subtracted from each reaction and initial rates were calculated from the slope of the linear portion of the product concentration versus time plots. kcat and KM were calculated as described above.

ScCdc14 [3] = target: T2, ScCdc14 (Saccharomyces cerevisiae, UniProt Q00684); assay: Enzyme inhibition, DiFMUP assay; assay type: biochemical
T2 construct: made in house; host or cells: E. coli BL21 AI
T2 sequence (Q00684 1-447 limits assumed): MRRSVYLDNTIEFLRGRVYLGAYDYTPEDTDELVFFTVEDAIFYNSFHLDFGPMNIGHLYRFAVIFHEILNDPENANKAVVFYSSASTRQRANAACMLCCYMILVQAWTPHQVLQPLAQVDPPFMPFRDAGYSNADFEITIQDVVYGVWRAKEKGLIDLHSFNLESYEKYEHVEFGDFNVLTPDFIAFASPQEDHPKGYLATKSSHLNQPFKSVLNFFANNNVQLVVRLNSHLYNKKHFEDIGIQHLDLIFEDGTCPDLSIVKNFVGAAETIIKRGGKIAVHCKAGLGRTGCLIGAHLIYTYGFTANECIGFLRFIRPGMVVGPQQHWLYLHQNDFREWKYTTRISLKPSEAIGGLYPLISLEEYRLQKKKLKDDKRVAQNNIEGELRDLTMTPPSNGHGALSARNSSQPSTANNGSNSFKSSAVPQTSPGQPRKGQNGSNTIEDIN
Excerpt: Measured initial rates were converted to percent activity relative to a reaction lacking pCF2Ser peptide. […] Ki is related to IC50 by the equation Ki = IC50/([S]/KM + 1). Since [S] was equal to KM in our assays, Ki = IC50/2.

MoCdc14 [4] = target: T1, MoCdc14; assay: biochemical; set-up: species or system Magnaporthe oryzae
AnCdc14 [5] = target: T3, AnCdc14 (Aspergillus niger, UniProt A2QDS6); assay: MS specificity constant assay; assay type: biochemical; conditions: pooled phosphopeptides 375 nM each, 1 to 1,000 nM Cdc14, pH 7.5, 30 °C; LC-MS; mean of 3 ± SD
CzCdc14 [6] = assay: Phosphopeptide steady-state kinetics (Biomol Green); assay type: biochemical, Cercospora zeina; conditions: phosphopeptide pS, pH 7.5, 30 °C, mean of 3 ± SD
Method: (§1) Activities towards varying concentrations of the synthetic phosphopeptide HT(pSer)PIKSIG (Genscript Corp) were measured in 50 µL assay buffer at 30 °C essentially as described above for pNPP, except substrate consumption was limited to 10% due to limited assay sensitivity and the reaction was stopped with 100 µL Biomol Green (Enzo Life Sciences).

ScCdc14 [7] = target: T2, ScCdc14; assay: MS specificity constant assay; assay type: biochemical; conditions: pooled phosphopeptides 375 nM each, 1 to 1,000 nM Cdc14, pH 7.5, 30 °C; LC-MS; mean of 3 ± SD
Excerpt: (§2) Our primary interest was the conservation of substrate specificity. To define the specificities of the eight fungal pathogen Cdc14 homologs and compare them to the well-characterized ScCdc14, we developed a new assay that uses mass spectrometry (MS) to measure the specificity constant, kcat/KM, for a collection of synthetic phosphopeptide substrates (Fig. 3a). This assay, based on a similar assay for measuring protease specificity, is more sensitive and has a much broader linear dynamic range (Fig. 3b) than the conventional malachite green colorimetric assay used to generate the phosphopeptide data in Table 1. These advantages made it convenient for measuring Cdc14 activity towards substrates whose specificity constants can vary by several orders of magnitude. The assay also increases throughput by allowing simultaneous measurement of kcat/KM for many different substrates. The peptides were based on the Yen1 Ser583 sequence with variations designed to test the importance of the four known ScCdc14 substrate recognition features (phosphoamino acid identity, + 1 Pro, + 3 Lys/Arg, Lys/Arg near + 3). Measurements were made by integrating MS chromatogram peak areas for the phosphorylated and dephosphorylated peptide species after Cdc14 treatment and using those values to calculate the fraction of substrate consumed (Fig. 3c; see “Methods” for details). […] Results from this assay were in reasonably good agreement with conventional steady-state kinetic measurements of kcat and KM using a malachite green spectroscopic assay (compare substrate pS in Tables 1 and 2), although the MS assay consistently yielded kcat/KM ~ three to fivefold higher, likely due to sensitivity limitations of the malachite green assay with high affinity substrates.
(§3) kcat/KM measurements can be made on pooled substrate mixtures for characterizing enzymatic specificity, provided substrate concentrations are far below KM[38]. Mass spectrometry is a useful tool for monitoring reaction progress in such mixtures, as long as each substrate and product has a unique mass. […]

BcCdc14 [8] = target: T4, BcCdc14 (Botrytis cinerea, UniProt A0A384J4N9); assay: MS specificity constant assay; assay type: biochemical; conditions: pooled phosphopeptides 375 nM each, 1 to 1,000 nM Cdc14, pH 7.5, 30 °C; LC-MS; mean of 3 ± SD
T4 sequence (A0A384J4N9 1-492): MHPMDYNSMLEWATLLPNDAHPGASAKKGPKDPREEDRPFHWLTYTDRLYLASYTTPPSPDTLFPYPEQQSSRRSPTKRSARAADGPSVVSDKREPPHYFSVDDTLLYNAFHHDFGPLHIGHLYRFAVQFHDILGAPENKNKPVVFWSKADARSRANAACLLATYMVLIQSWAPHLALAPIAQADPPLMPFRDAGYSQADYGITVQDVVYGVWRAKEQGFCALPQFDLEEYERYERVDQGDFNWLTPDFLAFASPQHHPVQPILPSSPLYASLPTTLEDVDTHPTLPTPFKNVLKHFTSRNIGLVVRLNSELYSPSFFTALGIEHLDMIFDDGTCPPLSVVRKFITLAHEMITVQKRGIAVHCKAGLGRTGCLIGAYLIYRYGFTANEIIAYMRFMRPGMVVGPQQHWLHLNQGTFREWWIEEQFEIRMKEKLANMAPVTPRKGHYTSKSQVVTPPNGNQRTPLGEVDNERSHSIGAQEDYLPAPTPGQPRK
Excerpt: as §2, §3

CgCdc14 [9] = target: T5, CgCdc14 (Colletotrichum gloeosporioides, UniProt A0A8H4CJA2); assay: MS specificity constant assay; assay type: biochemical; conditions: pooled phosphopeptides 375 nM each, 1 to 1,000 nM Cdc14, pH 7.5, 30 °C; LC-MS; mean of 3 ± SD
Excerpt: as §2, §3

MoCdc14 [10] = target: T1, MoCdc14; assay type: biochemical, Magnaporthe oryzae; conditions: phosphopeptide pS; pH 7.5, 30 °C; Biomol Green; mean of 3 ± SD
UmCdc14 = assay: MS specificity constant assay; assay type: biochemical, Ustilago maydis; conditions: pooled phosphopeptides 375 nM each, 1 to 1,000 nM Cdc14, pH 7.5, 30 °C; LC-MS; mean of 3 ± SD
Excerpt: (§4) Our primary interest was the conservation of substrate specificity. To define the specificities of the eight fungal pathogen Cdc14 homologs and compare them to the well-characterized ScCdc14, we developed a new assay that uses mass spectrometry (MS) to measure the specificity constant, kcat/KM, for a collection of synthetic phosphopeptide substrates (Fig. 3a). This assay, based on a similar assay for measuring protease specificity, is more sensitive and has a much broader linear dynamic range (Fig. 3b) than the conventional malachite green colorimetric assay used to generate the phosphopeptide data in Table 1. These advantages made it convenient for measuring Cdc14 activity towards substrates whose specificity constants can vary by several orders of magnitude. The assay also increases throughput by allowing simultaneous measurement of kcat/KM for many different substrates. The peptides were based on the Yen1 Ser583 sequence with variations designed to test the importance of the four known ScCdc14 substrate recognition features (phosphoamino acid identity, + 1 Pro, + 3 Lys/Arg, Lys/Arg near + 3). Measurements were made by integrating MS chromatogram peak areas for the phosphorylated and dephosphorylated peptide species after Cdc14 treatment and using those values to calculate the fraction of substrate consumed (Fig. 3c; see “Methods” for details). […]

AnCdc14 [11] = target: T3, AnCdc14; assay: Phosphopeptide steady-state kinetics (Biomol Green); assay type: biochemical; conditions: phosphopeptide pS, pH 7.5, 30 °C, mean of 3 ± SD
MoCdc14 [12] = target: T1, MoCdc14; assay type: biochemical, Magnaporthe oryzae; conditions: pooled phosphopeptides 375 nM each, 1 to 1,000 nM Cdc14, pH 7.5, 30 °C; LC-MS; mean of 3 ± SD
RsCdc14 [13] = target: T6, RsCdc14 (Rhizoctonia solani, UniProt L8WYM4); assay: Phosphopeptide steady-state kinetics (Biomol Green); assay type: biochemical; conditions: phosphopeptide pS, pH 7.5, 30 °C, mean of 3 ± SD
Method: as §1

ScCdc14 [14] = target: T2, ScCdc14; assay: as above; assay type: biochemical; conditions: phosphopeptide pS, pH 7.5, 30 °C, mean of 3 ± SD
Method: as §1

BcCdc14 [15] = target: T4, BcCdc14; assay: as above; assay type: biochemical; conditions: phosphopeptide pS, pH 7.5, 30 °C, mean of 3 ± SD
Method: as §1

CgCdc14 [16] = target: T5, CgCdc14; assay: as above; assay type: biochemical; conditions: phosphopeptide pS, pH 7.5, 30 °C, mean of 3 ± SD
Method: as §1

RsCdc14 [17] = target: T6, RsCdc14; assay: MS specificity constant assay; assay type: biochemical; conditions: pooled phosphopeptides 375 nM each, 1 to 1,000 nM Cdc14, pH 7.5, 30 °C; LC-MS; mean of 3 ± SD
all Cdc14 homologs = assay: MS specificity constant assay, all homologs compared; assay type: biochemical
Excerpt: as §4

CzCdc14 [18] = assay: MS specificity constant assay; assay type: biochemical, Cercospora zeina; conditions: pooled phosphopeptides 375 nM each, 1 to 1,000 nM Cdc14, pH 7.5, 30 °C; LC-MS; mean of 3 ± SD
Excerpt: as §4

CzCdc14 [19] = assay type: biochemical, Cercospora zeina; conditions: pNPP; 25 mM HEPES pH 7.5, 30 °C; mean of 3 ± SD
Method: Activities towards varying concentrations of para-nitrophenyl phosphate (pNPP) were measured in 100 µL assay buffer (25 mM HEPES pH 7.5, 2 mM TCEP, 1 mM EDTA, and 150 mM NaCl) at 30 °C. Enzyme concentrations were chosen to achieve absorbance values within the linear response range while satisfying the steady-state assumption where substrate consumption was < 1%. Reactions were initiated by enzyme addition and stopped with 1 N NaOH. Absorbance at 405 nm was measured on a Synergy H1 microplate reader (BioTek) and converted to product concentration using a para-nitrophenol standard curve. Initial rates were plotted as a function of substrate concentration and fit with the Michealis-Menten equation in GraphPad Prism (Version 8) to determine kcat and KM.

MoCdc14 [20] = target: T1, MoCdc14; conditions: pNPP; 25 mM HEPES pH 7.5, 30 °C; mean of 3 ± SD

T3 sequence (A2QDS6 1-476 limits assumed): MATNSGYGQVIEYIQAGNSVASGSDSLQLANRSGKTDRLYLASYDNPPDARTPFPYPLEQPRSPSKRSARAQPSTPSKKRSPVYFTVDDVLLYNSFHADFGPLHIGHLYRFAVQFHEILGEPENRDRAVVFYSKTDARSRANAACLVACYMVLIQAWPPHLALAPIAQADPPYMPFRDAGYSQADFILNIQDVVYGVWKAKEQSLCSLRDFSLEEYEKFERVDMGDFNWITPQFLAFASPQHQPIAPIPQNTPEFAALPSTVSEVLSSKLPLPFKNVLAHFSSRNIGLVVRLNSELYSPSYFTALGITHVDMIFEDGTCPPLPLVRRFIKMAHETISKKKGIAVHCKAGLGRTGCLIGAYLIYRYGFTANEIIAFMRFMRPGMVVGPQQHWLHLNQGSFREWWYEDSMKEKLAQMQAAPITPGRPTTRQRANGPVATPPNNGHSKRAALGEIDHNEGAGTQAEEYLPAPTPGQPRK
T5 sequence (A0A8H4CJA2 entry or part of it): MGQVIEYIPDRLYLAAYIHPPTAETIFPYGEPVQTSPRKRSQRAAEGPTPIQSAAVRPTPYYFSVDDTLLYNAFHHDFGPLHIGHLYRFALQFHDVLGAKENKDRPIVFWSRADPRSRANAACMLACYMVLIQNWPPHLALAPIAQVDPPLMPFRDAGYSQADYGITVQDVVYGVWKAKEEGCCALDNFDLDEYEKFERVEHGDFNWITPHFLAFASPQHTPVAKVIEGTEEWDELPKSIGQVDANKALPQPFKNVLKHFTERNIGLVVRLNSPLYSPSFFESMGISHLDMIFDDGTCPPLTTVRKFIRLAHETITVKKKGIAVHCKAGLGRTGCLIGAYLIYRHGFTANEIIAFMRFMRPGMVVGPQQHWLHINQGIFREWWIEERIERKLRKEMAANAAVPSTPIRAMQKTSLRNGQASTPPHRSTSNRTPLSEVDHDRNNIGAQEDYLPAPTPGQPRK
T6 sequence (L8WYM4 2-162 limits assumed): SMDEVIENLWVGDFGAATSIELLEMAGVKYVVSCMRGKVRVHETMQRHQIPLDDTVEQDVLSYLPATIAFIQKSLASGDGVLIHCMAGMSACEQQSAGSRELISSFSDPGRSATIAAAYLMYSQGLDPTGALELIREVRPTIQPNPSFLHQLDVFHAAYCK
T1 sequence (G4MRC9 1-474 limits assumed): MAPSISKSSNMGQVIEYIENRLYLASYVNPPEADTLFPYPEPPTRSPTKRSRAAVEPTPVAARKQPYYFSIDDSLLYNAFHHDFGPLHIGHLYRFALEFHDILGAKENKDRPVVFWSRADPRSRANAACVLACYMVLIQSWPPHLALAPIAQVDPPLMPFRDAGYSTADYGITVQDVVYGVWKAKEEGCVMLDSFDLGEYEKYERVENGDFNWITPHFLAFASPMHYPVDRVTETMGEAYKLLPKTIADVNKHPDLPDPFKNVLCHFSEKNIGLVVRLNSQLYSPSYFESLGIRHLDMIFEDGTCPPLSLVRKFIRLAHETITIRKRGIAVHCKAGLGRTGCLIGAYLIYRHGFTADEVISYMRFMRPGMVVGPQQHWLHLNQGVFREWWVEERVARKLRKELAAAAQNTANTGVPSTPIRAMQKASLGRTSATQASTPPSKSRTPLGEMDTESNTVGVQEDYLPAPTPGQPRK

## Cc1cc(=O)oc2c(F)c(OP(=O)(O)O)c(F)cc12 [DiFMUP]
MoCdc14 [1]
  kcat: 3 ± 0.5 s⁻¹
  kcat/KM: 68,000 ± 6,100 M^−1 s^−1
CzCdc14 [2]
  Km: 66 ± 11 µM
  kcat: 31 ± 2 s⁻¹
  kcat/KM: 477,000 ± 10,600 M^−1 s^−1

## CC(C)[C@H](NC(=O)[C@@H](N)CCC(=O)O)C(=O)N[C@@H](CC(F)(F)P(=O)(O)O)C(=O)N1CCC[C@H]1C(=O)N[C@H](C(=O)N[C@@H](CCCCN)C(=O)N[C@@H](CCCNC(=N)N)C(N)=O)[C@@H](C)O [pCF2Ser peptide, Glu-Val-pCF2Ser-Pro-Thr-Lys-Arg-amide] (H-EV[X1]PTKR-NH2)
ScCdc14 [3]
  Ki: 3.2 ± 1 µM
MoCdc14 [4]
  Ki: 3.4 ± 1.2 µM

## HT[pS]PIKSIG
AnCdc14 [5]
  specificity constant kcat/KM: 25,200 ± 2,200 M^−1 s^−1
CzCdc14 [6]
  Km: 62 ± 14 µM
  kcat: 2.1 ± 0.1 s⁻¹
  kcat/KM: 34,000 ± 8,000 M^−1 s^−1
ScCdc14 [7]
  specificity constant kcat/KM: 21,100 ± 1,400 M^−1 s^−1
BcCdc14 [8]
  specificity constant kcat/KM: 15,700 ± 1,200 M^−1 s^−1
CgCdc14 [9]
  specificity constant kcat/KM: 19,400 ± 1,800 M^−1 s^−1
MoCdc14 [10]
  Km: 63 ± 19 µM
  kcat: 0.4 ± 0.02 s⁻¹
  kcat/KM: 6,200 ± 1,700 M^−1 s^−1
UmCdc14
  specificity constant kcat/KM: 12,900 ± 3,300 M^−1 s^−1
AnCdc14 [11]
  Km: 194 ± 44 µM
  kcat: 1.0 ± 0.1 s⁻¹
  kcat/KM: 5,100 ± 800 M^−1 s^−1
MoCdc14 [12]
  specificity constant kcat/KM: 17,000 ± 2,500 M^−1 s^−1
RsCdc14 [13]
  Km: 178 ± 52 µM
  kcat: 0.52 ± 0.07 s⁻¹
  kcat/KM: 3,000 ± 600 M^−1 s^−1
ScCdc14 [14]; 640 nm
  kcat: 1.4 ± 0.1 s⁻¹
ScCdc14 [14]
  Km: 173 ± 21 µM
  kcat/KM: 7,800 ± 300 M^−1 s^−1
BcCdc14 [15]
  Km: 297 ± 38 µM
  kcat/KM: 3,400 ± 300 M^−1 s^−1
CgCdc14 [16]
  Km: 351 ± 21 µM
  kcat: 2.2 ± 0.1 s⁻¹
  kcat/KM: 6,200 ± 200 M^−1 s^−1
RsCdc14 [17]
  specificity constant kcat/KM: 17,300 ± 1,500 M^−1 s^−1
All Cdc14 homologs
  kcat/KM of pSer-containing peptide higher than pThr-containing peptide: > 1,000 fold
  kcat/KM of pSer-containing peptide higher than pTyr-containing peptide: > 100 fold
CzCdc14 [18]
  specificity constant kcat/KM: 110,800 ± 10,600 M^−1 s^−1

## O=[N+]([O-])c1ccc(OP(=O)(O)O)cc1 [pNPP, para-nitrophenyl phosphate]
CzCdc14 [19]
  Km: 25000 ± 2000 µM
  kcat: 2.8 ± 0.1 s⁻¹
  kcat/KM: 115 ± 6 M⁻¹ s⁻¹
MoCdc14 [20]
  kcat: 1.02 ± 0.03 s⁻¹
  kcat/KM: 40 ± 2 M⁻¹ s⁻¹
